Assay results published in article PMC10132233 (Journal of Enzyme Inhibition and Medicinal Chemistry, 2023).

How the values were obtained:
[1] = target: T1, vascular endothelial growth factor receptor 2 (VEGFR2) (Homo sapiens, UniProt P35968); assay: Small kinase panel, VEGFR2; type: biochemical; conditions: read-out: % kinase inhibition (relative to DMSO control) VEGFR2
T1 construct: purchased Reaction Biology Co. (Malvern, PA)
Experimental: (§1) Enzyme inhibitory assays were carried out as described in our previous reports in the literature. […] The HotSpot assay platform includes specific kinase/substrate pairs and required cofactors. The base reaction buffer consisted of 20 mM Hepes (pH 7.5), 10 mM MgCl2, 1 mM EGTA, 0.02% Brij35, 0.02 mg/mL BSA, 0.1 mM Na3VO4, 2 mM DTT, and 1% DMSO. The tested compounds were dissolved in 100% DMSO to a specific concentration, and serial dilution was conducted. The reaction mixture containing the tested compound and 33P-ATP was incubated at room temperature for 2 h, and radioactivity was detected using the filter-binding method.

HER2 = HER2 (Homo sapiens, UniProt P04626); assay: HotSpot kinase assay over HER2 (Reaction Biology)
22RV1 cells = assay: Cell cycle analysis (PI, ADAMII LS), 22RV1; type: cell-based, human; conditions: 22RV1, compound at its IC50, 24 h
Experimental: Cell cycle progression is responsible for normal cell growth and proliferation. DNA damage can result in apoptosis, which causes cell death, or DNA repair. At specific checkpoints that serve as control mechanisms to guarantee correct cell division, the state of the cells is evaluated. Checkpoints in the cell cycle include the G1 (restriction), S […], and G2/M[29]. Anticancer medications’ function is to halt cell division at these checkpoints. Treatment with potent cytotoxic (as an anticancer) agents can determine at which phase apoptosis occurs in the cell cycle. […] PC3 and 22RV1 cells were treated with compound 9f at its IC50. The comparison data in Table 6 and Figure 3 indicate that compound 9f (test 2) arrested the cell cycle of 22RV1 and PC3 cells at the G2/M phase by 62.74% and 49.43%, respectively (Figure 3). Also, the cell population in G1 and S phases decreases after treatment (test 2) compared to a negative control (test 1).
To determine the effect of the tested compound on the cell cycle distribution of PC3 and 22RV1 cell lines. Cell cycles can be analysed with checking the cell cycle change compared to the control group. Control cells without any treatment were used as a reference point for determining the cell cycle arrest phase for the test sample. Cell cycle analysis was performed using the Cell Cycle Analysis Kit (ADAMII LS, NanoEntek, Seoul, South Korea). Briefly, cancer cells were first seeded in six-well plates (0.8 × 10^6 cells per well) and then incubated for 24 h at 37 °C in a 5% CO2-containing atmosphere. […] 25 µL of sample mixture was loaded into ADAMII LS assay slide, then the slide was incubated at room temperature for 1 min in the dark and run on the ADAMII LS fluorescence cell analyser. Cell cycle distribution was calculated using ADAMII LS software (ADAMII LS, NanoEntek, Seoul, South Korea).

[2] = target: T2, p38α mitogen-activated protein kinase (MAPK14) (Homo sapiens, UniProt Q16539); assay: Small kinase panel, MAPK14; type: biochemical; conditions: read-out: % kinase inhibition (relative to DMSO control) MAPK14
T2 construct: purchased Reaction Biology Co. (Malvern, PA)
Experimental: as §1

[3] = tested on: PC3 prostate carcinoma cell line; assay: MTT cytotoxicity assay, PC3; type: cell-based; conditions: Homo sapiens, 24 h
Text: Accordingly, we aimed to investigate the cytotoxic potential of this new series against prostate carcinoma cell lines. […] The potent nanomolar cell-based activity of this series of compounds over the tested prostate carcinoma cell line could be attributed to other possible targets in addition to EGFR and HER2 receptors. The presence of the 2-nitroimidazole moiety in the chemical structure of compounds 9a–h could develop possible covalent bonds between the nitroimidazole moiety and some cellular proteins.
Prostate cancer cell lines (PC3 and 22RV1) of American Type Culture Collection (ATCC) were obtained from Korean Cell Center (KCL). PC3 and 22RV1 cell lines were cultured in Roswell Park Memorial Institute Medium (RPMI) 1640 and Dulbecco’s modified Eagle’s medium (DMEM) (GenDepot, Barker, TX) supplemented with 1% penicillin–streptomycin and 10% foetal bovine serum (FBS). The cells were maintained at 37 °C in a 5% CO2 with a 95% humid atmosphere.
To further analyse the intracellular cytotoxicity effect of the as-synthesised compounds, MTT assay was performed. Moreover, the experiments were divided into subcategories. In each group, cancer cells were first seeded in 96-well plates (4 × 10^4 cells per well) and then incubated for 24 h at 37 °C in a 5% CO2-containing atmosphere. Subsequently, the medium from the culture plate was removed, and 100 µL of RPMI media containing different concentrations of compounds (0.01, 0.005, 0.0025, 0.00125, and 0.000625 µM) were then added into the cell lines in each well and incubated for 24 h in a 5% CO2 humidified incubator at 37 °C. Afterwards, MTT solution (150 μL, 1 mg/mL) was added to each well, replacing the media-containing compounds. After 4 h of incubation, the MTT reagent was removed, and 200 μL of DMSO was then added to dissolve the formazan crystals, and colour intensity was measured at a wavelength of 540 nm using a BioTek Synergy H1 instrument (BioTek, Winooski, VT). IC50 was calculated according to the equation of Boltzmann sigmoidal concentration–response curve using Graph Pad Prism 5 (La Jolla, CA).

[4] = target: T3, cyclin-dependent kinase 2 (CDK2) (Homo sapiens, UniProt P24941); assay: Small kinase panel, CDK2; type: biochemical; conditions: read-out: % kinase inhibition (relative to DMSO control) CDK2
T3 construct: purchased Reaction Biology Co. (Malvern, PA)
Experimental: as §1

HER2, sequence (P04626 23-1255): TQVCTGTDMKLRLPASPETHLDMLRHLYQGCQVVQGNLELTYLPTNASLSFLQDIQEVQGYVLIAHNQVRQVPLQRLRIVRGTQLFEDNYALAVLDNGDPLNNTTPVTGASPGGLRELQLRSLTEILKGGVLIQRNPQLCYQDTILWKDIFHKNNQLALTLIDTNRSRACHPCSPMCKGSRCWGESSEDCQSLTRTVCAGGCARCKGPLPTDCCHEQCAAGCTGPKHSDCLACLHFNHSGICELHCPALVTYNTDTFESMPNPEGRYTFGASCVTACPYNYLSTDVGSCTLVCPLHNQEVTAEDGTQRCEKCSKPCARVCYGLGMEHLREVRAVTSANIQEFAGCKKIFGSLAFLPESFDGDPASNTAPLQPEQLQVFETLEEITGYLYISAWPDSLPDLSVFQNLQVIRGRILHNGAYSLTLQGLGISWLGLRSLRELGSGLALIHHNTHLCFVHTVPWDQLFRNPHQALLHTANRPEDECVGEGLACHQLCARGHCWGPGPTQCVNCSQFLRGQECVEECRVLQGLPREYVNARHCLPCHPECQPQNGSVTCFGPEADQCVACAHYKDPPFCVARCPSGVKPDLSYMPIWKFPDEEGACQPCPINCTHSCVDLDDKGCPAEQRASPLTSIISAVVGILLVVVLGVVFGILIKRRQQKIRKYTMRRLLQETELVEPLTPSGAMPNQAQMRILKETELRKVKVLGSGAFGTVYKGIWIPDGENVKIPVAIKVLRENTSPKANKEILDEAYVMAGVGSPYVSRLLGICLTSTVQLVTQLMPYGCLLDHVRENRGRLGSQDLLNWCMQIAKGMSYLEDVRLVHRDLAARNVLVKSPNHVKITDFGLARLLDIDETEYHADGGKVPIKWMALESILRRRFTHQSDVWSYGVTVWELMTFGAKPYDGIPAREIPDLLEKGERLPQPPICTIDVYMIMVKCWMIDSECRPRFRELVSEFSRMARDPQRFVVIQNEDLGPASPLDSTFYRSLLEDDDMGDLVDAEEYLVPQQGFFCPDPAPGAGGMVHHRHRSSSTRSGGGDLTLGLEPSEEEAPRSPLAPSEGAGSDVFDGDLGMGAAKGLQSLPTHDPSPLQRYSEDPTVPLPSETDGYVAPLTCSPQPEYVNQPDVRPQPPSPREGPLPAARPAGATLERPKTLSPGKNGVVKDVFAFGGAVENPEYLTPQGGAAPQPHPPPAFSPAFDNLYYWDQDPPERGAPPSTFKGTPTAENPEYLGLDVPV
T1 sequence (P35968 20-1356): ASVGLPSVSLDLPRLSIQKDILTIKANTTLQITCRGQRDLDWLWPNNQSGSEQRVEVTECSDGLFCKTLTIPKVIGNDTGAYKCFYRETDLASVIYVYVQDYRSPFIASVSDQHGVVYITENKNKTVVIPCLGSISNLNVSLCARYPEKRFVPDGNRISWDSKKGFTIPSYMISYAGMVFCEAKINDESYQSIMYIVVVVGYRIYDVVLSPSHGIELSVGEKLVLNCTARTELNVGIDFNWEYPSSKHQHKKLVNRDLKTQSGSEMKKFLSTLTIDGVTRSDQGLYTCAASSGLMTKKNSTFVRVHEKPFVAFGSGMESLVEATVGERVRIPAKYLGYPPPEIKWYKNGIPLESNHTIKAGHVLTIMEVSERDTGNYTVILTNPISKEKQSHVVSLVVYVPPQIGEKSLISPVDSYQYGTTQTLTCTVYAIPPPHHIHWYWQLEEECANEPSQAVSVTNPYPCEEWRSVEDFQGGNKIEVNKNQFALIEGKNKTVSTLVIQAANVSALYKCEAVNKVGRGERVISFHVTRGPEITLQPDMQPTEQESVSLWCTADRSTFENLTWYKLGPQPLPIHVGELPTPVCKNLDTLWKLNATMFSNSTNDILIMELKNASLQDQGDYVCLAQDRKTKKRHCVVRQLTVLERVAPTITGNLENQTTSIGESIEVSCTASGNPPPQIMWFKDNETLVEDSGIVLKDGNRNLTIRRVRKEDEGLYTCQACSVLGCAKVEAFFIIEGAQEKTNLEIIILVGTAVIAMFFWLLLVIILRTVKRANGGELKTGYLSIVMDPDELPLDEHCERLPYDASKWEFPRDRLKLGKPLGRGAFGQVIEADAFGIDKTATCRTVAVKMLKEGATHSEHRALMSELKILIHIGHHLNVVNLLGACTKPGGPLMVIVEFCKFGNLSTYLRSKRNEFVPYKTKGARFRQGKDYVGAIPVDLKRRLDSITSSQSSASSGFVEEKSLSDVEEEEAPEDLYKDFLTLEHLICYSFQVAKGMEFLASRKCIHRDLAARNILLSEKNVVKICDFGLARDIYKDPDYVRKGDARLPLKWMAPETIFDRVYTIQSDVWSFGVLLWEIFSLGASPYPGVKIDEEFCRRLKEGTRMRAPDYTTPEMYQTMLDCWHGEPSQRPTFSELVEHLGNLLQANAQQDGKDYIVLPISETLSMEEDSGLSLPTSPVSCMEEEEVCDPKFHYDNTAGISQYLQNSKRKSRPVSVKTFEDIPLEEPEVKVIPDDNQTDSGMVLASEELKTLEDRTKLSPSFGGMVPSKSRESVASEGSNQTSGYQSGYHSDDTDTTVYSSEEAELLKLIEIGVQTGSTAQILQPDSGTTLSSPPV
T2 sequence (Q16539 whole entry): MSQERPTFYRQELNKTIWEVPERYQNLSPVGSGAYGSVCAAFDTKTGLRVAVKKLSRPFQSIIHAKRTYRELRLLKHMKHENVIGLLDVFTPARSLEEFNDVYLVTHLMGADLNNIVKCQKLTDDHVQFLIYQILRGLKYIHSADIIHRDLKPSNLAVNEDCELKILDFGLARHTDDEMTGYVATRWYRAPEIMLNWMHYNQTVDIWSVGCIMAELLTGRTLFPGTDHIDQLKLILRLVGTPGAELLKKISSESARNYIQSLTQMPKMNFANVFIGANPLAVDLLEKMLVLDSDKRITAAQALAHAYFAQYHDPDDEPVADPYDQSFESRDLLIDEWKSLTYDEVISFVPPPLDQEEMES

Structure (SMILES): COc1cc2ncnc(Nc3ccc(Oc4cccc(C(F)(F)F)c4)c(Cl)c3)c2cc1OCCCCn1ccnc1[N+](=O)[O-] [Compound 9f, N-(3-Chloro-4-(3-(trifluoromethyl)phenoxy)phenyl)-7-methoxy-6-(4-(2-nitro-1H-imidazol-1-yl)butoxy)quinazolin-4-amine]
- inhibition at 10 µM [1]: -4.46%
- IC50 (HER2): 234 nM
- inhibition at 10 µM (HER2; read-out: % kinase inhibition HER2): 98%
- G0/G1 phase Percent (22RV1 cells): 6.08%
- G2/M phase Percent (22RV1 cells): 62.74%
- S phase Percent (22RV1 cells): 9.13%
- inhibition at 10 µM [2]: 24.3%
- IC50 [3]: 1 nM
- inhibition at 10 µM [4]: 0.8%
